Counter-ions that a name gives are not always drawn.
Tests used:
CIA rats [1] = test: CIA model rats, ankle joint histopathology (HE staining, lesion observation and scoring); assay type: in vivo; details: SD CIA rats; for joint lesions (histopathology) compared to model group: intragastric, once daily five days on/two days off, two weeks, formula I dihydrochloride 20 and 10 mg/kg, dexamethasone sodium phosphate 0.05 mg/kg
Description: (§1) After adaptive feeding of 80 SPF male SD rats with the weight of 140±10 g for 5 days, 10 male SD rats were randomly selected as a normal control group, and the rest were subjected to collagen-induced arthritis model modeling. The specific methods are as follows.
(§2) A solution of the bovine type II collagen (CII) in acetic acid (containing 2.0 mg·mL^−1 bovine CII) and an equal volume of complete Freund's adjuvant (CFA) were completely mixed, and the mixture was fully emulsified. The emulsion was added dropwise to water without diffusing as the degree, and finally the emulsion containing 1.0 mg·mL^−1 bovine CII was prepared. 0.2 mL of the emulsion was taken and injected intradermally into the dorsal and the base of the tail at four points (two points on the dorsal and two points on the base of the tail) for the primary immunization (d0). After day 7 (d7) of primary immunization, the emulsion was injected again as described above to boost the immunization. Then the arthritis index (AI) was scored on day 14 (d14). The highest score of each rat was 16 points, and the arthritis induction was considered successful if there was at least 1 paw with AI score≥2.
The CIA rats successfully modeled were randomly divided into a drug medium-dose group, a drug low-dose group and a model group, with 10 rats in each group. The normal group and the model group were subjected to intragastric administration with 0.02 mL·g^−1 normal saline; the drug medium-dose group and the drug low-dose group were administered with the dihydrochloride salt of the compound of formula I at 20 mg/kg and 10 mg/kg, respectively, (the vehicle was normal saline). The positive drug group was subjected to intragastric administration with dexamethasone sodium phosphate with the dose of 0.05 mg/kg. The rats was administered once daily from Monday to Friday (i.e., consecutively five-day administration and then two-day interruption). The dosing period was two weeks.
After the animal blood collection was finished, ankle joints were fixed in 10% formalin. The ankle joints were subjected to decalcification by 10% acetic acid and then were subjected to routine paraffin embedding, slicing and HE staining. The slices were observed by pathology professionals, and then the damage degree of joint synovial tissue, joint bones and cartilage tissue was observed and scored for comparison.
Observation of lesions and scoring: 1. whether the joint synovial cells are proliferated or eroded (denatured, necrotic), and whether the inflammatory cells infiltrate or not; 2. whether the pannus is formed (composed of blood vessels and fibroblasts); 3. whether the bony erosion (joint bone and cartilage) or hyperplasia exists; 5. whether the joint cavity has stenosis, disappearance and other lesions. The observation indexes were classified into 3 grades according to the severity of the lesions, which were respectively recorded as: 1 point for slight, 2 points for moderate, and 3 points for severe. 0 points means substantially normal. All scores were accumulated to obtain a total score, and the average score (mean±SD) of each animal in each group was calculated, and the higher the score, the more severe the lesion.

[2] = tested on: rheumatoid arthritis CIA model rats; test: Rheumatoid arthritis CIA model, joints photographing; assay type: in vivo; details: Wistar CIA rats; anlotinib 10 mg/kg, dexamethasone 0.1 mg/kg; FIGS. 6 and 7
Description: (§3) 15 SPF healthy male rats from Wistar with the weight of 160-180 g and purchased from Shanghai Institute of Planned Parenthood Research, with Certificate No. 20180006022473 in an SPF feeding environment.
(§4) Modeling group: on day 1 of the experiment, the primary immunization was performed. The animals in the modeling group were anesthetized with isoflurane. Four points were taken to inject the modeling agent on both sides of the spinal cord skin at the base of the tail of the rats. A total of 0.2 mL of CII/CFA molding emulsion was injected intradermally. On day 8 of the experiment, the second immunization was performed, and the operations were the same as those on day 1 of the experiment. Blank control group: equal volume of normal saline was injected.
(§5) After grouping, oral gavage administration was started according to the grouping requirements, and the administration volume was 10 mL/kg. The administration was carried out once daily for 14 days (from day 1 to day 14). On day 15, the animals were dissected after collection of relevant experimental data.
One rat in each group was selected, and the hind limb ankle joints thereof were photographed on day 4, day 8, day 11 and day 15.

[3] = tested on: human rheumatoid arthritis synovial cells; test: MTT assay for the inhibition of human rheumatoid arthritis synovial cells; assay type: cell-based
Description: An MTT assay for the inhibition of human rheumatoid arthritis synovial cells using the dihydrochloride salt of the compound of formula I as the test drug: the trypsinized cell suspension was seeded in a 96-well plate at a volume of 100 μL per well, with 1×10^4 cells per well. The edges of the plate were wiped with sterile PBS. The plate was placed in a cell incubator and incubated at 37° C. with 5% CO2. After 24 h of incubation, the original culture solution in the wells was aspirated. Then 100 μL of culture solution with gradient concentration of drug was added to each well, and 6 concentrations were set, namely, 0 μM, 0.5 μM, 1 μM, 2 μM, 5 μM and 10 μM, respectively. The plate was placed in the incubator and incubated at 37° C. with 5% CO2. After 24 h and 48 h after dosing, 20 μL of MTS was added to each well. The plate was incubated at 37° C. for 1.5 h. The absorbance of each well at a wavelength of 540 nm was measured by a microplate reader, and the inhibition rate of cells in each group was calculated.
The calculation formula is as follows: cell inhibition rate/%=(1−[…])×100%

[4] = Rheumatoid arthritis CIA model, weight monitoring; assay type: in vivo; details: Wistar CIA rats, oral gavage once daily 14 days, dexamethasone 0.1 mg/kg, FIG. 1; for weight of the rats, regain after treatment: anlotinib 10 mg/kg
Description: as §3, §4, §5
During the experiment, the weight of the rats in each group was measured once daily from the day of grouping and administration (day 1) to day 15.

interleukin-1β (IL-1β) = test: CIA model rats, serum IL-1β by enzyme-linked immunosorbent assay; assay type: in vivo; details: SD CIA rats; day 28; 20 and 10 mg/kg
Description: as §1
as §2, with “The highest score of each rat was 16 points, and the arthritis induction was considered successful if there was at least 1 paw with AI score≥2.” left out
(§6) After day 28 of the experiment, the blood was collected from the abdominal aorta of the rats in each group, and the serum was separated. The tumor necrosis factor-α (TNF-α) and the interleukin-1β (IL-1β) were detected by enzyme-linked immunosorbent assay, and the specific method was carried out according to the specifications of the kit. […]

CIA rats [5] = test: CIA model rats, determination of the rat paw swelling degree; assay type: in vivo; details: SD CIA rats; right hind paw thickness; 20 and 10 mg/kg
Description: as §1
as §2, with “The highest score of each rat was 16 points, and the arthritis induction was considered successful if there was at least 1 paw with AI score≥2.” left out
Determination of the rat paw swelling degree: before the primary immunization (d0), every 7 d (d7, d14) after the primary immunization and every 4 d after treatment, the thickness of the right hind paw of the rats was measured with a vernier caliper at the same position. […]

[6] = tested on: rheumatoid arthritis CIA model rats; test: Rheumatoid arthritis CIA model, hind limb joint size monitoring (vernier caliper); assay type: in vivo; details: Wistar CIA rats, anlotinib 10 mg/kg; for joint swelling degree (ankle width and thickness) compared to model group: dexamethasone 0.1 mg/kg, FIGS. 2 and 3; for width of the hind limb ankle joints vs. model group / thickness of the hind limb ankle joints vs. model group: dexamethasone 0.1 mg/kg oral gavage once daily; for width of the hind limb ankle joints vs. model group: FIG. 2; for thickness of the hind limb ankle joints vs. model group: FIG. 3
Description: as §3, §4, §5
During the experiment, the width and thickness of the hind limb ankle joints of the rats in each group were measured with a vernier caliper on day 1, day 4, day 8, day 11 and day 15.

[7] = tested on: rheumatoid arthritis CIA model rats; test: Rheumatoid arthritis CIA model, hind limb joint weight determination; assay type: in vivo; details: day 8; Wistar CIA rats; anlotinib 10 mg/kg, dexamethasone 0.1 mg/kg oral gavage once daily; FIG. 5
Description: as §3, §4, §5
On day 8, two rats in each group were dissected, and the weight of the hind limb joints was measured. The remaining animals were subjected to normal experiments according to the grouping schedule. On day 15, the remaining animals in each group were dissected, and the weight of the hind limb joints was measured.

[8] = tested on: rat rheumatoid arthritis model; test: Rat rheumatoid arthritis CIA model, overall drug efficacy; assay type: in vivo; details: Wistar CIA rats; anlotinib 10 mg/kg oral gavage once daily for 14 days
Description: as §3
15 rats were randomly divided into two groups according to the weight, blank control group (n=3) and modeling group (n=12).
as §4
The animals in the modeling group were divided into 3 groups according to the joint swelling degree and the joint scores: group-2 (n=4, model group), group-3 (n=4, positive control group), and group-4 (n=4, test drug group).
After grouping, oral gavage administration was started according to the grouping requirements, and the administration volume was 10 mL/kg. The administration was carried out once daily for 14 days (from day 1 to day 14). […]

[9] = tested on: rheumatoid arthritis CIA model rats; test: Rheumatoid arthritis CIA model, hind limb joint lesion scoring; assay type: in vivo; details: Wistar CIA rats, anlotinib 10 mg/kg, dexamethasone 0.1 mg/kg oral gavage once daily, FIG. 4
Description: as §3, §4
After modeling was completed, the animals were normally observed and housed. After the hind limb joints of the animals were diseased, the animals were grouped according to the joint swelling degree and the joint score, wherein the scoring criteria were as follows: • clinical diagnostic scoring criteria for joint soft tissue swelling and joint mobility:
as §5
During the experiment, hind limb ankle joints of the rats in each group were scored for joint soft tissue swelling and joint mobility on day 1, day 4, day 8, day 11 and day 15.

[10] = tested on: tumor necrosis factor-α (TNF-α); test: CIA model rats, serum TNF-α by enzyme-linked immunosorbent assay; assay type: in vivo; details: SD CIA rats; day 28; 20 and 10 mg/kg
Description: as §1
as §2, with “The highest score of each rat was 16 points, and the arthritis induction was considered successful if there was at least 1 paw with AI score≥2.” left out
as §6

SMILES	joint lesions (histopathology) compared to model group (CIA rats [1])	joint swelling degree on photographs compared to model group [2]	weight of the rats, regain after treatment [4]	joint swelling degree (ankle width and thickness) compared to model group [6]	thickness of the hind limb ankle joints vs. model group ([6]; day 8)	width of the hind limb ankle joints vs. model group ([6]; day 15)	weight of the hind limb joints vs. model group [7]	lesion scores of the hind limb ankle joints vs. model group ([9]; day 8)	lesion scores of the hind limb ankle joints vs. model group ([9]; day 11)	lesion scores of the hind limb ankle joints vs. model group ([9]; day 15)	also measured
COc1cc2c(Oc3ccc4[nH]c(C)cc4c3F)ccnc2cc1OCC1(N)CC1 [Anlotinib hydrochloride, 1-[[[4-(4-fluoro-2-methyl-1H-indol-5-yl)oxy-6-methoxyquinolin-7-yl]oxy]methyl]cyclopropylamine]	improved in different degrees	improved to a certain extent	began to regain from day 7	improved to a certain extent	lower than that of the model group	lower than that of the model group	lower than that of the model group	lower than those of the model group	lower than those of the model group	lower than those of the model group	dose dependence of joint improvement (histopathology) (CIA rats [1]; 20 mg/kg and 10 mg/kg): improved in a dose-dependent manner; joint cavity stenosis compared with model group (CIA rats [1]; 20 and 10 mg/kg): significantly improved; joint inflammatory infiltration compared with model group (CIA rats [1]; 20 and 10 mg/kg): significantly reduced; synovium hyperplasia compared with model group (CIA rats [1]; 20 and 10 mg/kg): significantly relieved; inhibition of proliferation of human rheumatoid arthritis synovial cells ([3]; 0.5, 1, 2, 5 and 10 μM compared with drug-free group at 0 μM, 24 h and 48 h after dosing): significantly inhibit the proliferation of human rheumatoid arthritis synovial cells; concentration dependence of the inhibitory effect on synovial cell proliferation ([3]; 0.5-10 μM): enhanced along with the increase of the concentration of the drug; content of IL-1β in the serum of rats compared with model group (interleukin-1β (IL-1β)): could reduce; paw swelling degree compared with model group (CIA rats [5]): significantly reduced; width of the hind limb ankle joints vs. model group ([6]; day 4): lower than that of the model group; thickness of the hind limb ankle joints vs. model group ([6]; day 4): lower than that of the model group; width of the hind limb ankle joints vs. model group ([6]; day 8): lower than that of the model group; drug efficacy on the rat rheumatoid arthritis model (conclusion) [8]: significant drug efficacy; lesion scores of the hind limb ankle joints vs. model group ([9]; day 4): lower than those of the model group; content of TNF-α in the serum of rats compared with model group [10]: could reduce
C[C@@H]1C[C@H]2[C@@H]3CCC4=CC(=O)C=C[C@]4(C)[C@@]3(F)[C@@H](O)C[C@]2(C)[C@@]1(O)C(=O)COP(=O)(O)O [dexamethasone sodium phosphate, reference compound]	significantly reduced	improved to a certain extent	began to regain from day 7	improved to a certain extent	lower than that of the model group	lower than that of the model group	lower than that of the model group	lower than those of the model group	lower than those of the model group	lower than those of the model group	weight of the rats, early stage (side effect) [4]: significant weight loss at the early stage

Source: patent publication US12508258B2, “Quinoline derivative for treating rheumatoid arthritis” (CHIA TAI TIANQING PHARMACEUTICAL GROUP CO., LTD., priority 2020, dated 2025)
